One molecule from patent US7294643B2, “UK-1 analogues: methods of preparation and use” (Board of Regents, The University of Texas System, priority 2002, dated 2007) can be followed below.

For orientation: IC50 means the concentration that inhibits the measured activity by half.

One test deals with SK-N-MC. The test can be described thus: alamarBlue cytotoxicity assay, SK-N-MC. It is filed as cell-based. Conditions: Homo sapiens. How it is done: (§1) Cytotoxicity Assays. Cell culture cytotoxicity assays were performed using the. alamarBlue method, as described by Ahmed et al., J. Immun. Methods 1994, 170, 211-224, which is incorporated herein by reference. Briefly, aliquots of 100 μL of cell suspension (1.0-2.5×10^3 cells) was placed in 96-well microtiter plates in an atmosphere of 5% CO2 at 37° C. After 24 hours, 100 μL of culture medium and 2 μL of compound in vehicle (culture media with 40% pyridine) or vehicle alone were added, and the plates incubated an additional 72 hours. The final pyridine concentration in all cases was 0.4%; at this pyridine concentration there was no affect on the growth of cells compared to cells in culture media without added pyridine. […] After the culture media had been removed from each well, 200 μL of fresh media and 20 μL of 90% alamarBlue reagent were added, followed by an additional 6 h incubation. The fluorescent intensity was measured using a Spectrafluor Plus plate reader with excitation at 530 nm and emission at 590 nm. Results are reported as IC50 values, the average concentration required to produce a decrease of fluorescent intensity of 50% relative to vehicle-treated controls in two separate determinations.
(The colour change of resazurin is a common sign of viable cells or microbes.)

Test [1] relates to methicillin-resistant S. aureus ATCC 43300. Description: Antimicrobial bioassay, methicillin-resistant S. aureus. Format: cell-based, Staphylococcus aureus. The method, then:
Antimicrobial Bioassay: Staphylococcus aureus ATCC 29213 and methicillin-resistant S. aureus ATCC 43300 (MRS) were obtained from the American Type Culture Collection (Rockville, Md.) and stored on agar slants at 4° C. until needed. Susceptibility testing was performed using a modified version of the NCCLS methods: “Methods for Dilution Antimicrobial Susceptibility Tests for Bacteria that Grow Aerobically,” M7-A4, Vol. 17, No. 2, NCCLS, (1997) and “Reference Method for Broth Dilution Antifungal Susceptibility Testing of Yeasts; Approved Standard,” M27-A, Vol. 17, No. 9, NCCLS, (1997), both of which are incorporated herein by reference. Microorganisms were subcultured prior to the assay by suspending cells from the slant in Eugon broth (BBL, Maryland) and incubating for 24 hours at 37° C. Inocula were prepared by diluting the subcultured organism in its incubation broth after comparison to the 0.5 McFarland Standard (a BaSO4 suspension) to afford final inocula ranges of S. aureus: 1.0-5.0×10^5 and MRS: 0.2-6.0×10^5 CFU/ml. Test compounds were dissolved in DMSO, serially-diluted using normal saline, and transferred in duplicate to 96 well flat-bottomed microtiter plates. The microbial inocula were added to the samples to achieve a final volume of 200 μl and final compound concentrations starting with 50 μg/ml. Drug [Ciprofloxacin (ICN Biomedicals, Ohio)] as well as growth and blank (media only) controls were added to each test plate. Plates were read at 630 nm using the EL-340 Biokinetics Reader (Bio-Tek Instruments, Vermont) prior to and after incubation at 37° C. for 24 hours. Percent growth was calculated and plotted versus concentration to afford the IC50, or sample concentration that affords 50% growth of the organism relative to controls.

The next test deals with SK-N-SH. The test can be described thus: alamarBlue cytotoxicity assay, SK-N-SH. As to conditions: Homo sapiens. It is filed as cell-based. How it is done:
as §1

In another test the test system is HL60 cells. The test can be described thus: alamarBlue cytotoxicity assay, HL60. Format: cell-based, human. Conditions: HL60, alamarBlue, 72 h. The method, then:
as §1

Test [2] is described as follows: Metal ion binding by continuous variation, Mg2+. Conditions: Mg^2+, methanol, 1:1 complex. How it is done:
(§2) Previous work indicated the metal ion binding mechanism of UK-1, so the method of continuous variation was used to determine the ability of selected UK-1analogues to bind a variety of metal ions. Methanolic solutions of UK-1 or UK-1 analogues and metal ion salts [Ca(NO3)2, Mg(NO3)2, Zn(NO3)2, or Fe(NO3)3] at various molar ratios, and 20 μM combined total concentration, were prepared and the absorbance at 418 nm was determined. […] Compound 2.1 does bind with Ca^2+ and Zn^2+ better than UK-1.
(§3) Continuous variation plots. A 100 μM solution of UK-1 or analogue and 100 AM solutions of Ca(NO3)2, Mg(NO3)2, Zn(NO3)2, or Fe(NO3)3 were prepared in methanol. From these stock solutions, 15 samples (1 mL) of varying mole fraction of the metal ion were prepared at a constant, combined concentration of 20 μM for the ligand and the metal ion. The change in absorbance was monitored from 500 to 200 nm for each sample using as a reference a 1 mL solution containing the same concentration of ligand as the sample being measured but without the metal ion. The maximum absorbance change was typically around 418 nm but varied somewhat for each metal ion. The absorbance at 418 nm was plotted as a function of the mole fraction of the metal ion and the maximum absorbance change was determined. The absorbance of a sample containing the metal ion concentration corresponding to this maximum change and a 15 fold excess of metal ion at this ligand concentration, subtracted from a reference containing the same concentration of ligand but no metal ion was used to normalize the curve and obtain the conditional formation constant as described in the paper to Likussar, W.; Boltz, D. F. Anal. Chem. 1971, 43, 1265-1272, which is incorporated herein by reference.

For a further test, the system named is CHP-212. Description: alamarBlue cytotoxicity assay, CHP-212. It is filed as cell-based. Conditions: Homo sapiens; CHP-212, alamarBlue. How it is done:
as §1

For a further test, the system named is SK-N-AS. Description: alamarBlue cytotoxicity assay, SK-N-AS. As to conditions: Homo sapiens. Format: cell-based. How it is done: as §1
Test [3] can be described thus: Metal ion binding by continuous variation, Zn2+. Conditions: Zn^2+, methanol, 1:1 complex. The method, then: as §2, §3
Another test deals with DU145. The test can be described thus: alamarBlue cytotoxicity assay, DU145. Format: cell-based. Conditions: Homo sapiens, DU-145. The method, then:
as §1

Another test relates to SK-N-F1. Description: alamarBlue cytotoxicity assay, SK-N-F1. It is filed as cell-based. The method, then:
as §1

A further test has as its system PC-3 cells. Description: alamarBlue cytotoxicity assay, PC-3. It is filed as cell-based, human. Conditions: PC-3, alamarBlue. The method, then: as §1

For the molecule `COC(=O)c1cccc2oc(-c3cccc4oc(-c5ccccc5O)nc34)nc12` [UK-1], the IC50 is 1100 nM with SK-N-MC; above 50 µg/mL in test [1] (Staphylococcus aureus, ATCC43300, Methacilline-resistant Staph. Aureus, growth inhibited by 50%, read-out: Staph. aureus IC50); 7000 nM in the test on SK-N-SH; 400 nM with HL60 cells; 320 nM with HL60 cells (Homo sapiens, HL-60, 72 h); 12000 nM in the test on CHP-212. The IC50 was found to be 24000 nM in the test with SK-N-AS; 200 nM with DU145; 7000 nM in the test with SK-N-F1; 400 nM in the test on PC-3 cells (Homo sapiens, PC-3, 72 h); 320 nM with PC-3 cells (72 h). Further, the antibacterial effect result in test [1] (methicillin-resistant S. aureus, concentrations up to 50 μg/mL) is given as “no indication of any antibacterial effect”. For the same molecule, the “Association constant for metal ion binding” value in test [2] and in test [3] was 2e+06 M⁻¹ throughout.
